Here are results for nine molecules from PubChem BioAssay (NCI).

Assay in all cases: DTP human tumour cell line panel, 48 h
Assay [1] concerns DU-145 prostate.
For assay [2], the system named is IGROV1 ovarian.
In assay [3] the test system is HCC-2998 colon.
For assay [4], the system named is SK-MEL-28 melanoma.
Assay [5] relates to A498 renal.
Assay [6] deals with PC-3 prostate.
The test system of assay [7] is LOX IMVI melanoma.
The test system of assay [8] is SF-295 CNS.
Assay [9] deals with SNB-75 CNS.
Assay [10] relates to RPMI-8226 leukemia.

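Step 1: Grow cells in 96-well plates. Step 2: Expose to compound for 48 hours at 5 concentrations. Step 3: Interpolate endpoints linearly; if unreached, use highest concentration. Abbreviation: GI50, concentration required for 50% inhibition of growth. TGI: concentration producing complete growth inhibition.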

As a reminder, the GI50 is the concentration that inhibits growth by half. One may read the TGI as the concentration at which net growth stops. A lower TGI goes with more potent growth arrest. For the molecule `CNNC(=N\S(=O)(=O)c1cc(C(=O)Nc2ccc(Cl)cc2)c(Cl)cc1SCc1ccccc1)/N=C/c1ccc([N+](=O)[O-])s1`, the GI50 in assay [1] is over 20.3 µM; in assay [2], over 70.1 µM; in [3], 2.83 µM; in assay [4], over 100 µM; in assay [5], over 100 µM; in [6], over 100 µM. Besides, the GI50 in [7] and in assay [8] was over 100 µM in each case. Also, the TGI in assay [1], in assay [2], in [3], in assay [4], in assay [5] and in [6] was over 100 µM throughout. The TGI in assay [7] and in assay [8] was over 100 µM each time.
For the molecule `COc1ccc2[nH]c(=O)c(/C=C/C(=O)/C=C/c3ccc(O)c(OC)c3)cc2c1`, the GI50 in assay [1] is 1.69 µM; in assay [2] it was 1.77 µM; in [3], 1.97 µM; in assay [4] it was 1.69 µM; in assay [9] it was 2.96 µM; in assay [6] it was 1.83 µM. Also, the GI50 in [7] was 1.54 µM; in [8], 2.36 µM; in assay [10] it was 0.359 µM. For the same molecule, the TGI in assay [1] is 3.5 µM; in assay [2] it was 4.24 µM; in assay [3], 3.64 µM; in assay [4], 3.25 µM; in [9] it was 14.4 µM; in assay [6], 4.94 µM. Moreover, the total growth inhibition concentration (TGI) in [7] was determined as 3.18 µM; in [8], 7.36 µM; in assay [10], 1.65 µM.
As for `CCN(C(=O)CCl)C(C)(C)C(SSSC(c1ccc(Cl)cc1)C(C)(C)N(CC)C(=O)CCl)c1ccc(Cl)cc1` (centres undefined), the GI50 in [1] is 11.5 µM; in assay [2], 10.9 µM; in assay [3] it was 11.1 µM; in [4], 2.05 µM; in assay [9], 13.3 µM; in assay [5], 1.9 µM. The GI50 in [7] was 3.1 µM; in [8] it was 2.99 µM; in assay [10], 3.99 µM. Further, the TGI in assay [1] worked out at 24.2 µM; in assay [2], 31.5 µM; in assay [3] it was 26.6 µM; in assay [4] it was 4.31 µM; in assay [9] it was 29.5 µM; in assay [5], 7.42 µM. Moreover, the TGI worked out at 10.7 µM in [7], 8.93 µM in assay [8] and 18.2 µM in [10].
As to `O=C(NC(=S)NNC(=S)NNc1ccccc1)c1ccccc1`, the GI50 in assay [1] was 44.1 µM; in assay [2] it was 4.8 µM; in assay [3] it was 8.53 µM; in [4], 10.6 µM; in assay [9], 3.09 µM; in assay [5] it was 37.5 µM. Moreover, the GI50 in [7] is 7.22 µM; in assay [8], 4.19 µM; in assay [10] it was 3.55 µM. Moreover, the concentration for total growth inhibition (TGI) in assay [1], in assay [2], in assay [3], in assay [4], in assay [9] and in [5] was over 100 µM each time. Moreover, the TGI in assay [7], in assay [8] and in assay [10] was over 100 µM in each case.
Turning to `O=C(OCC1OC(OC(=O)c2cc(O)c(O)c(OC(=O)c3cc(O)c(O)c(O)c3)c2)C(OC(=O)c2cc(O)c(O)c(OC(=O)c3cc(O)c(O)c(O)c3)c2)C(OC(=O)c2cc(O)c(O)c(OC(=O)c3cc(O)c(O)c(O)c3)c2)C1OC(=O)c1cc(O)c(O)c(OC(=O)c2cc(O)c(O)c(O)c2)c1)c1cc(O)c(O)c(OC(=O)c2cc(O)c(O)c(O)c2)c1` (centres undefined), the GI50 is 14.8 µM in [1]; 11.2 µM in [3]; over 50 µM in assay [4]; 38.8 µM in [9]; 10.1 µM in assay [6]; 10 µM in assay [7]. The GI50 in [8] is 8.65 µM; in [10], 20.8 µM. The TGI in assay [1] is over 50 µM; in assay [3] it was 46 µM; in assay [4] it was over 50 µM; in assay [9], over 50 µM; in [6], over 50 µM; in [7], 25.4 µM. Further, the TGI is 22.9 µM in [8] and over 50 µM in assay [10].
`CC(=O)OC1CCC2(C)C(CCC3C4CC=C(C(C)=O)C4(C)OC(=O)CC32)C1` (centres undefined): the GI50 was 2.36 µM in assay [1]; 2.88 µM in assay [2]; 2.21 µM in assay [3]; 1.74 µM in [4]; 6.59 µM in [5]; 4.56 µM in assay [6]. The values for the GI50 in assay [7] and in assay [10] were 1.61 µM and 1.79 µM, respectively. Moreover, the TGI in assay [1] was determined as 6.1 µM; in assay [2], 10.3 µM; in [3], 4.06 µM; in assay [4], 3.27 µM; in assay [5], 19.9 µM; in assay [6], 16.7 µM. The figures for the TGI in [7] and in [10] were 3.17 µM and 4.86 µM, respectively.
For `COc1ccc2nc(NC(=O)C(=O)C(C(=O)c3ccccc3-c3ccccc3)C3OC(=O)c4ccccc43)sc2c1` (centres undefined), the TGI in assay [2] came out at 71.7 µM; in [3], 29.1 µM; in assay [4] it was 51 µM; in assay [9], 35.1 µM; in assay [5] it was 40.8 µM; in assay [7] it was 35.4 µM. Also, the TGI in assay [8] was over 100 µM; in [10], 51.9 µM.
On to `C#C[C@@]1(O)[C@@H](CO)O[C@@H](n2ccc3c(N)ncnc32)[C@@H]1O`, for which the GI50 was 0.563 µM in assay [1]; 1.43 µM in [2]; 1.45 µM in assay [3]; 3.99 µM in assay [4]; 0.808 µM in assay [6]; 0.667 µM in [7]. Moreover, the values for the GI50 in [8] and in assay [10] were 1.73 µM and 0.777 µM, respectively. For the same molecule, the TGI in [1] was 6.56 µM; in [2] it was 5.85 µM; in [3], 3.12 µM; in [4], 20.2 µM; in [6] it was 3.54 µM; in [7], 2.05 µM. Moreover, the TGI in assay [8] is 5.33 µM; in assay [10], over 100 µM.
As for `COc1cc([C@@H]2c3cc4c(cc3[C@@H](NCc3ccccc3)C3COC(=O)[C@@H]32)OCO4)cc(OC)c1O` (some centres undefined), the TGI is over 92.3 µM in [2]; 33 µM in assay [3]; over 100 µM in assay [4]; 23.8 µM in assay [9]; 19.4 µM in [5]; 25.9 µM in assay [7]. In addition, the results for the total growth inhibition concentration (TGI) in [8] and in assay [10] were 26.5 µM and 21.2 µM, respectively.
